Patent US11337944B2, “Method of treating colorectal cancers using a PKC inhibitor” (UNIVERSITY OF SOUTH FLORIDA, priority 2016, dated 2022)
“Also recorded” adds a separate entry of the source. Read-outs that look alike come from different tables or passages of the source.

Tests used:
[1] = test system: HT-29 colon cancer cell line; experiment: HT-29 colon cancer cell proliferation, viable cell count (Tryphan blue exclusion, scepter); format: cell-based; conditions: for HT-29 cell proliferation at 0.25 μM / HT-29 cell proliferation at 1.5 μM: after three days of treatment; for effect on HT-29 cell proliferation with concentration: 24-72 hours, several concentrations; for IC50: HT-29, three days of treatment, read-out: decrease of growth of HT-29 cells by 50 percent (IC50)
Description: (§1) The colon cancerous cell line, HT-29 and normal colon epithelial cells, CCD18CO were obtained from American Type Tissue Culture Collection. The HT-29 cells and CCD18CO cells were subculture and maintained in T75 flasks containing McCoy's media and Eagle's Minimum Essential Media respectively, both of the flasks were supplemented with 10% FBS (Fetal Bovine Serum) and 1% antibiotics (Penicillin 10 U/ml and streptomycin 10 mg/ml). Cells were incubated at 37° C. and 5% CO2. After few days of incubation following subculture, cells were used at 70-80% confluency for the experiment.
Cells (3.0×10^4/well) were grown as monolayer on 6 wells plate. […] Cells are then washed (2 ml 2× DPBS buffer), trypsinized, resuspended in McCoy's 5A media and counted with hemocytometer, Scepter & MTT assay.
After starting treatment, viable cells were counted at each 24 hours interval using Tryphan blue exclusion assay and scepter. The data represents n=4 independent experiments.
HT-29 cells were treated with five different concentrations of DNDA for 24-72 hours. After starting treatment, viable cells were counted at each 24 hours interval using Tryphan blue exclusion assay and scepter. The data represents n=4 independent experiments.
HT-29 cells were treated with five different concentrations of ICA-1 for 24-72 hours. After starting treatment, viable cells were counted at each 24 hours interval using Tryphan blue exclusion assay and scepter. The data represents n=4 independent experiments.
HT-29 cells were treated with four different concentrations of ζ-Stat for 24-72 hours. After starting treatment, viable cells were counted at each 24 hours interval using Tryphan blue exclusion assay and scepter. The data represents n=4 independent experiments.

PKC-ζ [2] = target: T1, PKC-ζ (Homo sapiens, UniProt Q05513); conditions: cited from earlier work
T1 construct: harvested and whole cell extracts were prepared; endogenous in cells; host or cells: HT-29
T1 sequence (Q05513 1-592): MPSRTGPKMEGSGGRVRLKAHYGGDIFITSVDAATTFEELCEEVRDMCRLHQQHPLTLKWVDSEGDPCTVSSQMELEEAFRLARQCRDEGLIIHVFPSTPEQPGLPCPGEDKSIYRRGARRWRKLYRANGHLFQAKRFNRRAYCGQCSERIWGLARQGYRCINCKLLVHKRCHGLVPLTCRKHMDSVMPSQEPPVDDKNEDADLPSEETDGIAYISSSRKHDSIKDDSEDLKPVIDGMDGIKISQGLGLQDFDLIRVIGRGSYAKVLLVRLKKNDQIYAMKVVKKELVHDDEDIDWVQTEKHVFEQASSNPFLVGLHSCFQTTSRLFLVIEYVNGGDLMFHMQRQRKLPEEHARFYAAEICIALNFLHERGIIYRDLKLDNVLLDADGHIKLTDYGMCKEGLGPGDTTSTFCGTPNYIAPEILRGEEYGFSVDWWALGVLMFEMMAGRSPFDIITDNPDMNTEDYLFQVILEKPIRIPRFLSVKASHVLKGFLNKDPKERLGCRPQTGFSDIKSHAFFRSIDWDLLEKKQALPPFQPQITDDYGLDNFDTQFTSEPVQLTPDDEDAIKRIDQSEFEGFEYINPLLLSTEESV

PKC-ι [3] = target: T2, PKC-ι (Homo sapiens, UniProt P41743); conditions: cited from earlier work
T2 construct: harvested and whole cell extracts were prepared; endogenous in cells; host or cells: HT-29
T2 sequence (P41743 1-596): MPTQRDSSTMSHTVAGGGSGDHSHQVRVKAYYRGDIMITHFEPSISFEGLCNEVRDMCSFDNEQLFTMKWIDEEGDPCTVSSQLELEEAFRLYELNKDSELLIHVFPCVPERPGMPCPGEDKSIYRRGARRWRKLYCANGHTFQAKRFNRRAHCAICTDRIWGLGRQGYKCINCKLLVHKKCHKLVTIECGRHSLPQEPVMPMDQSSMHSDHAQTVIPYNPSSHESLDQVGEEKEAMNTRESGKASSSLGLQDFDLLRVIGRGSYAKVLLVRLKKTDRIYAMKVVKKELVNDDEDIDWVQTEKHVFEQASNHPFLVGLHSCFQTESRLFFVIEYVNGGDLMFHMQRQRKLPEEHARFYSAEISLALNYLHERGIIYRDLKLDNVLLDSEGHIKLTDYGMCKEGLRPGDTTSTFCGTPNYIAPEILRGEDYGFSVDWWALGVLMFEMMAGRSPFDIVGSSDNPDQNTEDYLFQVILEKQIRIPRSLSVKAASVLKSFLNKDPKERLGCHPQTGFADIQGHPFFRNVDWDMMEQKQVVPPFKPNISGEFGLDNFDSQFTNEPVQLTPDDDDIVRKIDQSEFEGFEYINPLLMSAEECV

PKC-ζ [4] = target: T1, PKC-ζ; experiment: Western blot of PKC-ζ expression and phosphorylation in HT-29 cells; format: cell-based; conditions: HT-29, 72 hours, increasing concentrations, immunoblot
Description: (§2) Cells were cultured (9.0×10^4) in 100 mm cell culture flasks. […] Equal volume of sterile water (vehicle control) as the volume of drug was added in the control also. Treatment was continued for three consecutive days. Total cell-lysates were prepared and subjected to western blot analysis for aPKC analysis.
(§3) Because PKC-ι and PKC-ζ are homologous (84%) in terms of amino acids sequence of their catalytic domain [7], the specificity of the effect of ζ-Stat on PKC-ζ was tested by performing western blot analysis. HT-29 colorectal cancerous cells were treated with seven different concentrations of ζ-Stat for 72 hours, harvested and whole cell extracts were prepared. Equal amounts (40 μg) of protein were loaded on SDS-PAGE followed by immunoblotting for pPKC-ι(T555), PKC-ι, pPKC-ζ(T410), PKC-ζ, pAKT(S473) and β-actin to examine the effect of ζ-Stat on those protein levels. Data represents n=3 independent observations.

PKC-ι [5] = target: T2, PKC-ι; experiment: Western blot of PKC-ι expression and phosphorylation in HT-29 cells; format: cell-based; conditions: HT-29, 72 hours, increasing concentrations, immunoblot
Description: as §2, §3

[6] = test system: HT-29 colorectal cancer cells; experiment: Western blot of survival and apoptotic proteins (Caspase-3, BCL-XL, Survivin) in HT-29 cells; format: cell-based; conditions: HT-29, 7 μM, 72 hours, immunoblot
Description: HT-29 colorectal cancer cells were treated with 7 μM ICA-I or 7 μM ζ-Stat for 72 hours, harvested and whole cell lysates were prepared. Equal amounts (40 μg) of protein were loaded on SDS-PAGE followed by immunoblotting for Caspase-3, BCL-XL, Survivin and β-actin to determine the effects of specific aPKC inhibition on survival and apoptotic proteins. Data represents n=3 independent experiments.

[7] = test system: CCD18CO normal colon epithelial cell line; experiment: MTT assay on CCD18CO normal colon epithelial cells; format: cell-based
Description: as §1
To establish the efficacy of ζ-Stat as a specific inhibitor of PKC-ζ, the effect of ζ-Stat on CCD18CO normal colon epithelial cell line was tested. CCD18CO normal epithelial cell line cells were treated with four different concentrations of ζ-Stat for three consecutive days followed by incubation with MTT reagent and taking absorbance reading at each half an hour interval for three hours at 577 nm using microplate reader. The data represents n=3 independent experiments.
The percentage of inhibition of CCD18C0 cell growth was measured after three hours of MTT incubation. […] The data represents n=3 independent replicates (FIG. 19).

[8] = test system: CCD18CO normal colorectal cells; experiment: Western blot of survival and apoptotic proteins in CCD18CO normal cells; format: cell-based; conditions: 7 μM, 72 hours, immunoblot
Description: CCD18CO cells were treated with 7 μM ICA-I or 7 μM ζ-Stat, respectively, for 72 hours, harvested and whole cell lysates were prepared. Equal amounts (40 μg) of protein were loaded on SDS-PAGE followed by immunoblotting for PKC-ι, PKC-ζ, Caspase-3, BCL-XL, and β-actin to see the effect of specific aPKC inhibition on survival and apoptotic proteins. Data represents n=3 independent experiments.

SMILES	HT-29 cell proliferation at 0.25 μM [1]	HT-29 cell proliferation at 1.5 μM [1]	effect on HT-29 cell proliferation with concentration [1]	IC50 [1]	inhibition of PKC-ζ (PKC-ζ [2])	inhibition of PKC-ι (PKC-ι [3])	IC50 ([1]; Homo sapiens, 72 h)	inhibition of HT-29 cells ([1]; treatment over three days)	level / phosphorylation of PKC-ζ (PKC-ζ [4])	effect on PKC-ι (PKC-ι [5])	level of pro-survival proteins [6]	effect on normal colon epithelial cells CCD18CO (cell number / toxicity) ([7]; 1.0-3.0 μM, three consecutive days, MTT)	percent inhibition of CCD18CO cell growth ([7]; after three hours of MTT incubation)	toxicity to normal epithelial cells CCD18CO [8]
Nc1c(S(=O)(=O)O)cc2cc(S(=O)(=O)O)ccc2c1N [DNDA, 3,4, diamino-2,7-naphthalene disulfonic acid]	slight decrease in proliferation	dramatic decrease in proliferation	decrease colon cancer cell proliferation in a dose-dependent manner	~780 nM	about 80%	about 20%	–	–	–	–	–	–	–	–
O=S(=O)(O)c1cc(O)c2c(S(=O)(=O)O)cc(S(=O)(=O)O)cc2c1 [ζ-Stat, 8-hydroxy-1,3,6-naphthalenetrisulfonic acid]	–	dramatic decrease in cell proliferation	inhibits colon cancer cell proliferation in a dose-dependent manner	–	–	–	~1400 nM	about 60%	decrease the levels of total and phosphorylated PKC-ζ; also recorded: selective decrease in the phosphorylation of PKC-ζ	without affecting PKC-ι; also recorded: specifically inhibits PKC-ζ not PKC-ι	decreases the level of pro-survival proteins	not toxic; also recorded: did not change	less than 10%	not toxic
NC(=O)c1ncn(C2CC(COP(=O)(O)O)C(O)C2O)c1N (stereo not drawn) [ICA-1, [4-(5-amino-4-carbamoylimidazol-1-yl)-2,3-dihydroxycyclopentyl] methyl dihydrogen phosphate]	slight increase in cell proliferation	dramatic decrease in cell proliferation	decrease colon cancer cell proliferation in a dose-dependent manner	~950 nM	–	–	–	–	–	–	–	–	–	not toxic
